{"source": "ChEMBL document CHEMBL5126650", "about": "“Novel IRAK Degraders for Treating Cancer” (ACS Med Chem Lett, 2022)", "biological_target": "Protein cereblon/Interleukin-1 receptor-associated kinase 4 (Homo sapiens, UniProt Q9NWZ3+Q96SW2)", "sequence (Q9NWZ3 whole entry)": "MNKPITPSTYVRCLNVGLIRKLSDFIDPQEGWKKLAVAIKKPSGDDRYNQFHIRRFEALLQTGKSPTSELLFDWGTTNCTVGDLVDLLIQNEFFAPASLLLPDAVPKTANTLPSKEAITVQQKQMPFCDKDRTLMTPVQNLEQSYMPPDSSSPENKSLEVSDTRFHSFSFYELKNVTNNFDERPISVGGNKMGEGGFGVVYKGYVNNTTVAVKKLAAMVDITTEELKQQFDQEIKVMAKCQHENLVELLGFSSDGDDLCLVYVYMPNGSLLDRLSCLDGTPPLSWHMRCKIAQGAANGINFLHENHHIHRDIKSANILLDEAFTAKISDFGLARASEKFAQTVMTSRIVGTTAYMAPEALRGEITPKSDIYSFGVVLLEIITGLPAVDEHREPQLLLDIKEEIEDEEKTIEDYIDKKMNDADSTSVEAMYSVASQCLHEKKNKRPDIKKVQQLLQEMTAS", "sequence (Q96SW2 whole entry)": "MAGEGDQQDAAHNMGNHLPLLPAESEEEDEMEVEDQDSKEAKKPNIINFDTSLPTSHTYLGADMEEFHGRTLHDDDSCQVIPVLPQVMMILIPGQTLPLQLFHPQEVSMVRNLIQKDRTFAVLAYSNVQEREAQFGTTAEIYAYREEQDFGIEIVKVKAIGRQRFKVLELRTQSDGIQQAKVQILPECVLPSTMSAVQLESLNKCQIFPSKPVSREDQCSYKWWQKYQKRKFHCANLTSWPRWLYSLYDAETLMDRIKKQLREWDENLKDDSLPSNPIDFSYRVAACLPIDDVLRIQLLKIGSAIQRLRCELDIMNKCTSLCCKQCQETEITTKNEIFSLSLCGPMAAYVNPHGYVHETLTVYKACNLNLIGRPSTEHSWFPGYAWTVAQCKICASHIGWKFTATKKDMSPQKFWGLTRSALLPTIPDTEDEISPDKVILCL", "experiment": "Protac activity at E3 ubiquitin ligase/IRAK4 in human OCILY10 cells assessed as degradation of IRAK4 incubated for 4 hr by MSD assay", "assay_type": "cell-based"}
{"molecule": "CN(C[C@H]1CC[C@H](n2cc3cc(NC(=O)c4cccc(C(F)(F)F)n4)ncc3n2)CC1)C1CCN(c2ccn3c(N4CCC(=O)NC4=O)cnc3c2)CC1", "values": [{"measurement": "DC50", "result": "< 10", "unit": "nM"}]}
{"molecule": "COc1cc2nc([C@H]3CC[C@H](CN4CCC(c5ccn6c(N7CCC(=O)NC7=O)cnc6c5)CC4)CC3)sc2cc1NC(=O)c1cccc(C(F)(F)F)n1", "values": [{"measurement": "DC50", "result": "< 10", "unit": "nM"}]}
{"molecule": "COc1cc2nn([C@H]3CC[C@H](CN(C)C4CCN(c5ccc6c(N7CCC(=O)NC7=O)cncc6c5)CC4)CC3)cc2cc1NC(=O)c1cccc(C(F)(F)F)n1", "values": [{"measurement": "DC50", "result": "< 10", "unit": "nM"}]}
{"molecule": "CN(C[C@H]1CC[C@H](n2cc3cc(NC(=O)c4cccc(C(F)(F)F)n4)ccc3n2)CC1)C1CCN(c2ccn3c(N4CCC(=O)NC4=O)cnc3c2)CC1", "values": [{"measurement": "DC50", "result": "< 10", "unit": "nM"}]}
{"molecule": "CN(C[C@H]1CC[C@H](n2cc3cc(NC(=O)c4cccc(C(F)(F)F)n4)c(C(C)(C)O)cc3n2)CC1)C1CCN(c2ccn3c(N4CCC(=O)NC4=O)cnc3c2)CC1", "values": [{"measurement": "DC50", "result": "< 10", "unit": "nM"}]}
{"molecule": "CN(C[C@H]1CC[C@H](n2cc3cc(NC(=O)c4cccc(C(F)(F)F)n4)c(C(C)(C)O)cc3n2)CC1)C1CCN(c2ccc3c(N4CCC(=O)NC4=O)cncc3c2)CC1", "values": [{"measurement": "DC50", "result": "< 10", "unit": "nM"}]}
